Reference: patent US20110136853A1, “LIGAND WITH A BROAD SPECTRUM OF PHARMACOLOGICAL ACTIVITY, A PHARMACEUTICAL COMPOSITION, A MEDICINAL AGENT AND A METHOD OF TREATMENT” (priority 2008, published 2011)
Marks after values point to notes of the source that are not given here.

How the values were obtained:
dopamine D2L = target: T1, dopamine D2L (Homo sapiens, UniProt P14416); experiment: radioligand displacement, dopamine D2L; type: binding; conditions: human being, ligand 10 μM, duplicates
T1 construct: MDS Pharma Services (contract laboratory)
T1 sequence (P14416 whole entry): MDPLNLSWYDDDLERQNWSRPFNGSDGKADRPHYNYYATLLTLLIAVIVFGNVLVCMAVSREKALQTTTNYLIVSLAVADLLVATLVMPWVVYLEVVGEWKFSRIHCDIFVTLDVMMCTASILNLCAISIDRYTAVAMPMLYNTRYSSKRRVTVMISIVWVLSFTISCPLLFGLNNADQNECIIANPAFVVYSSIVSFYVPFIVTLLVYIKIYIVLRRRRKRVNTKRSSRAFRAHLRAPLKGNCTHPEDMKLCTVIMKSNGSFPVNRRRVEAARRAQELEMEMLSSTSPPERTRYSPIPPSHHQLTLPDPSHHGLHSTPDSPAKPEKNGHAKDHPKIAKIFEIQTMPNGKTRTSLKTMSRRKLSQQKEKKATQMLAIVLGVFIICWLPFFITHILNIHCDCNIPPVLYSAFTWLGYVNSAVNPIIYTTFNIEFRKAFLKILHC
Experimental: (§1) The firm MDS Pharma Services [http://www.mdsps.com] carried out this test in duplicates at ligand concentration 10 μM by the displacement of the corresponding radioactive-labeled ligand. Test results, expressed in percent of ligand replacement (%), represented in Table 2 and in FIG. 1.

sodium channel, site 2 = experiment: radioligand displacement, sodium channel site 2; type: binding; conditions: site 2, rat, ligand 10 μM, duplicates
Experimental: as §1

[1] = target: T2, dopamine transporter (DAT) (Homo sapiens, UniProt Q01959); experiment: radioligand displacement, dopamine transporter; type: binding; conditions: human being, ligand 10 μM, duplicates
T2 construct: MDS Pharma Services (contract laboratory)
Experimental: as §1

sigma σ1 = target: T3, sigma σ1 (Homo sapiens, UniProt Q99720); experiment: radioligand displacement, sigma σ1; type: binding; conditions: sigma σ1, human being; ligand 10 μM, duplicates
T3 construct: MDS Pharma Services (contract laboratory)
Experimental: as §1

histamine H2 = target: T4, histamine H2 (Homo sapiens, UniProt P25021); experiment: radioligand displacement, histamine H2; type: binding; conditions: histamine H2, human being; ligand 10 μM, duplicates
T4 construct: MDS Pharma Services (contract laboratory)
T4 sequence (P25021 whole entry): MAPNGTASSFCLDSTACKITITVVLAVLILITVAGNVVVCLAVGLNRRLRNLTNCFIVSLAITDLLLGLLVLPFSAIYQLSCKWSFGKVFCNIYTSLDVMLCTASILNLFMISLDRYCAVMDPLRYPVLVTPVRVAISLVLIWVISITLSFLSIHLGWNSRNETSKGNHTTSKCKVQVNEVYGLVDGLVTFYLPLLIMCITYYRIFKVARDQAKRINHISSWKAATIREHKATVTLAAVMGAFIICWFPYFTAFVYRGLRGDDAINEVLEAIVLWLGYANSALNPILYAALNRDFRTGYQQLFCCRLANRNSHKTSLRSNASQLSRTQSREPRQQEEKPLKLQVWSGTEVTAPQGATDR
Experimental: as §1

histamine H1 = target: T5, histamine H1 (Homo sapiens, UniProt P35367); experiment: radioligand displacement, histamine H1; type: binding; conditions: histamine H1, human being; ligand 10 μM, duplicates
T5 construct: MDS Pharma Services (contract laboratory)
Experimental: as §1

[2] = system: calcium channel of L-type, benzothiazepine; experiment: radioligand displacement, L-type calcium channel (benzothiazepine); type: binding; conditions: rat, ligand 10 μM, duplicates
Experimental: as §1

dopamine D1 = target: T6, dopamine D1 (Homo sapiens, UniProt P21728); experiment: radioligand displacement, dopamine D1; type: binding; conditions: dopamine D1, human being; ligand 10 μM, duplicates
T6 construct: MDS Pharma Services (contract laboratory)
T6 sequence (P21728 whole entry): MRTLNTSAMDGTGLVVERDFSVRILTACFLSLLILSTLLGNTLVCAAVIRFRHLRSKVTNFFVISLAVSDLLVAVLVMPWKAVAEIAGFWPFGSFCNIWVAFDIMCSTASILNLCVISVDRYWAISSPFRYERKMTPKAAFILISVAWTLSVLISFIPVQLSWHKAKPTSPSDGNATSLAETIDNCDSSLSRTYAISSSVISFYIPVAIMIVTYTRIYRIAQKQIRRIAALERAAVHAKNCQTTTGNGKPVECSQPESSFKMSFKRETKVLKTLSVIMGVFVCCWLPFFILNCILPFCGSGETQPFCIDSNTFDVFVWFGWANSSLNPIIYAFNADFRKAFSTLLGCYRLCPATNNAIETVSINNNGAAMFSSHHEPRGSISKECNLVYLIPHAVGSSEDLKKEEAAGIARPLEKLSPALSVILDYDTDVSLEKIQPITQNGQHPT
Experimental: as §1

serotonin 5-HT7 = target: T7, serotonin 5-HT7 (Homo sapiens, UniProt P34969); experiment: radioligand displacement, serotonin 5-HT7; type: binding; conditions: serotonin 5-HT7, human being; ligand 10 μM, duplicates
T7 construct: MDS Pharma Services (contract laboratory)
Experimental: as §1

serotonin 5-HT6 = target: T8, serotonin 5-HT6 (Homo sapiens, UniProt P50406); experiment: radioligand displacement, serotonin 5-HT6; type: binding; conditions: serotonin 5-HT6, human being; ligand 10 μM, duplicates
T8 construct: MDS Pharma Services (contract laboratory)
T8 sequence (P50406 whole entry): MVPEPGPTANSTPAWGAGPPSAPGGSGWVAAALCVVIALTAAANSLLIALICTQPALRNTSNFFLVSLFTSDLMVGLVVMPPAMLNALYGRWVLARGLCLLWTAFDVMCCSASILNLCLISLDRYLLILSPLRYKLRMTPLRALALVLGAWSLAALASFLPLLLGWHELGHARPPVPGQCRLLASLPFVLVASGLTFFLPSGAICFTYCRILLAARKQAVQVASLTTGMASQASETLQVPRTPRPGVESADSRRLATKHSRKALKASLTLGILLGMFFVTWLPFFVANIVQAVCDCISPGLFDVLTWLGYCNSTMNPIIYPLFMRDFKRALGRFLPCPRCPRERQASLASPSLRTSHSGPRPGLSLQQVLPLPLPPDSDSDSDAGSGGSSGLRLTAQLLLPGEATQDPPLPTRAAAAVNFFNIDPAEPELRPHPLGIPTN
Experimental: as §1

sigma σ2 = target: T9, sigma σ2 (Rattus norvegicus, UniProt Q5U3Y7); experiment: radioligand displacement, sigma σ2; type: binding; conditions: ligand 10 μM, duplicates
T9 construct: MDS Pharma Services (contract laboratory)
T9 sequence (Q5U3Y7 whole entry): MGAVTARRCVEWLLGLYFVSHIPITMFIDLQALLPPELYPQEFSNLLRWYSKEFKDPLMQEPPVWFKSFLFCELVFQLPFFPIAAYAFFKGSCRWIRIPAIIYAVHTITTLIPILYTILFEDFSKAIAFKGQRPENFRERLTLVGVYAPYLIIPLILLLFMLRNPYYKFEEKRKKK
Experimental: as §1

adrenergic β2 = target: T10, adrenergic β2 (Homo sapiens, UniProt P07550); experiment: radioligand displacement, adrenergic β2; type: binding; conditions: adrenergic β2, human being; ligand 10 μM, duplicates
T10 construct: MDS Pharma Services (contract laboratory)
Experimental: as §1

adrenergic α1B = target: T11, adrenergic α1B (Rattus norvegicus, UniProt P15823); experiment: radioligand displacement, adrenergic α1B; type: binding; conditions: ligand 10 μM, duplicates
T11 construct: MDS Pharma Services (contract laboratory)
T11 sequence (P15823 whole entry): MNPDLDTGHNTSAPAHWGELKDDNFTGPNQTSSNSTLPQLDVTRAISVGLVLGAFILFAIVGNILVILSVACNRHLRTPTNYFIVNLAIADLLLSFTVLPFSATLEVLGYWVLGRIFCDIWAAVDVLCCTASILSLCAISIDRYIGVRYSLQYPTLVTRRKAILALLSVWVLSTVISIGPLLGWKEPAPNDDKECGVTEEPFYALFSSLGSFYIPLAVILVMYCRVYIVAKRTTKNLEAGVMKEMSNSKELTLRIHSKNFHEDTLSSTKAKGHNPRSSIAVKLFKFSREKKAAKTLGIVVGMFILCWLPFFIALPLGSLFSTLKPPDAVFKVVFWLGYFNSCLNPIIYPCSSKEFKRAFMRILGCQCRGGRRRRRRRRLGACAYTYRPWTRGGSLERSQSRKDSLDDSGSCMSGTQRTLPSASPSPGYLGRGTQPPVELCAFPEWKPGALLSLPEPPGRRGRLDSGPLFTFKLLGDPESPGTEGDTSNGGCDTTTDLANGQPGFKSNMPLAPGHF
Experimental: as §1

adrenergic α2A = target: T12, adrenergic α2A (Homo sapiens, UniProt P08913); experiment: radioligand displacement, adrenergic α2A; type: binding; conditions: human being, ligand 10 μM, duplicates
T12 construct: MDS Pharma Services (contract laboratory)
T12 sequence (P08913 whole entry): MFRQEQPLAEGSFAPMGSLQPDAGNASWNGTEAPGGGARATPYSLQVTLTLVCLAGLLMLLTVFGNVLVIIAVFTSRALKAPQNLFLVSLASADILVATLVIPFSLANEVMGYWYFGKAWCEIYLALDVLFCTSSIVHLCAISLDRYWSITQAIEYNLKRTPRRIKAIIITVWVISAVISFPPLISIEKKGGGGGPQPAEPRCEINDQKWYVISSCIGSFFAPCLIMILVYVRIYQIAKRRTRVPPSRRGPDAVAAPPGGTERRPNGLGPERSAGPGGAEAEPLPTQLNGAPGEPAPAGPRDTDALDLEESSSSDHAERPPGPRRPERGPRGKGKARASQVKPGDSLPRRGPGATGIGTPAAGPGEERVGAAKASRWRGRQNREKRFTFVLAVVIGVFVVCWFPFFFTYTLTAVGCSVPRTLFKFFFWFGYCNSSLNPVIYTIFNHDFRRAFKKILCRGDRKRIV
Experimental: as §1

dopamine D2S = target: T13, dopamine D2S (Homo sapiens, UniProt P14416); experiment: radioligand displacement, dopamine D2S; type: binding; conditions: human being, ligand 10 μM, duplicates
T13 construct: MDS Pharma Services (contract laboratory)
Experimental: as §1

serotonin 5-HT1B = target: T14, serotonin 5-HT1B (Homo sapiens, UniProt P28222); experiment: radioligand displacement, serotonin 5-HT1B; type: binding; conditions: human being, ligand 10 μM, duplicates
T14 construct: MDS Pharma Services (contract laboratory)
T14 sequence (P28222 whole entry): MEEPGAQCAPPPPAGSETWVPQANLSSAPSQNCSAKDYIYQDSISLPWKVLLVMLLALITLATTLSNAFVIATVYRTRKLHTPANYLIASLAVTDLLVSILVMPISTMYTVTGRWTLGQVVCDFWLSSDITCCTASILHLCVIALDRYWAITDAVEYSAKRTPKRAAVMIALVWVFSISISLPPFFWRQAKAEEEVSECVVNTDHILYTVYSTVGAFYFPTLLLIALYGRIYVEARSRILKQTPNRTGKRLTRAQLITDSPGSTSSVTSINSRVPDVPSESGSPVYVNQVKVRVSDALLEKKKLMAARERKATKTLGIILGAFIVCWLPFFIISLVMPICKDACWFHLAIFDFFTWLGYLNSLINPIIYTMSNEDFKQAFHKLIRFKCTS
Experimental: as §1

[3] = target: T15, norepinephrine transporter (NET) (Homo sapiens, UniProt P23975); experiment: radioligand displacement, norepinephrine transporter; type: binding; conditions: human being, ligand 10 μM, duplicates
T15 construct: MDS Pharma Services (contract laboratory)
T15 sequence (P23975 whole entry): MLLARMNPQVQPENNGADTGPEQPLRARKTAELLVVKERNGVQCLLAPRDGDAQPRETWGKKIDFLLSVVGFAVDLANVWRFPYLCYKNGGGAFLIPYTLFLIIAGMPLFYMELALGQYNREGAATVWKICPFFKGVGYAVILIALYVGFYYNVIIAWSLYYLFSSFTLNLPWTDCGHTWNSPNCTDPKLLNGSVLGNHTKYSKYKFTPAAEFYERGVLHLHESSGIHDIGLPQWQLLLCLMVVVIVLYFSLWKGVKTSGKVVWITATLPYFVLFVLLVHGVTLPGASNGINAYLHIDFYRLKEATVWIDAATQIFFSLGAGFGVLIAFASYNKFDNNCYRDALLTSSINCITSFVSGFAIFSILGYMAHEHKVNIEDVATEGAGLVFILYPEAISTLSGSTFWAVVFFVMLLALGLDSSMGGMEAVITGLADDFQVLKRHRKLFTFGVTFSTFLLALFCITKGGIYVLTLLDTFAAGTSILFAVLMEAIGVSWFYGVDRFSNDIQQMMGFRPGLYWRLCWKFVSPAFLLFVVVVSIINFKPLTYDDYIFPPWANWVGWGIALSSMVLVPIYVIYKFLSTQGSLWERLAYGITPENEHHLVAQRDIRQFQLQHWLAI
Experimental: as §1

adrenergic α1A = target: T16, adrenergic α1A (Rattus norvegicus, UniProt P43140); experiment: radioligand displacement, adrenergic α1A; type: binding; conditions: ligand 10 μM, duplicates
T16 construct: MDS Pharma Services (contract laboratory)
T16 sequence (P43140 whole entry): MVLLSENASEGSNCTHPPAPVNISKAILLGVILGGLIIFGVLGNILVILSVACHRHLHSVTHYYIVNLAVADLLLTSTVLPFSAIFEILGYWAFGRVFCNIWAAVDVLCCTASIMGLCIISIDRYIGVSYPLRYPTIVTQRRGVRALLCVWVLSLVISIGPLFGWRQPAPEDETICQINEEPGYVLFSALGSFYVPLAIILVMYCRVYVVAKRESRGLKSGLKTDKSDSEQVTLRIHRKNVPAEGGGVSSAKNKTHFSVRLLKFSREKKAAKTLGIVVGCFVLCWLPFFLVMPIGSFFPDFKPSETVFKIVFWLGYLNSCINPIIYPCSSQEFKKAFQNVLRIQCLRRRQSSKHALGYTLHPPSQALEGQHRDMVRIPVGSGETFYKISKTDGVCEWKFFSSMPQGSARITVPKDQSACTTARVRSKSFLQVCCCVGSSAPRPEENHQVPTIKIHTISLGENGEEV
Experimental: as §1

serotonin 5-HT2C = target: T17, serotonin 5-HT2C (Homo sapiens, UniProt P28335); experiment: radioligand displacement, serotonin 5-HT2C; type: binding; conditions: human being, ligand 10 μM, duplicates
T17 construct: MDS Pharma Services (contract laboratory)
T17 sequence (P28335 33-458): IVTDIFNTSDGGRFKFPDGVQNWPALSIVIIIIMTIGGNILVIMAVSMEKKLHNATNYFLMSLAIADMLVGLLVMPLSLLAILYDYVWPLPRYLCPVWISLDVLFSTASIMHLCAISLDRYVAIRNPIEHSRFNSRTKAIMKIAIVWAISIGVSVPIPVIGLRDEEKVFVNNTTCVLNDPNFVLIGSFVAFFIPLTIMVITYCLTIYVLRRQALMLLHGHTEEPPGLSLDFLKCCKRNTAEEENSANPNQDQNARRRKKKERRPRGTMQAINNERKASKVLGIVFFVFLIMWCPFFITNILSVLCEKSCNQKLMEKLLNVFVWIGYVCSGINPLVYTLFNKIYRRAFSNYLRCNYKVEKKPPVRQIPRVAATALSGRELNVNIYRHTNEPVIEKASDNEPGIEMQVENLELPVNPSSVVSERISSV
Experimental: as §1

dopamine D3 = target: T18, dopamine D3 (Homo sapiens, UniProt P35462); experiment: radioligand displacement, dopamine D3; type: binding; conditions: dopamine D3, human being; ligand 10 μM, duplicates
T18 construct: MDS Pharma Services (contract laboratory)
Experimental: as §1

serotonin 5-HT2B = target: T19, serotonin 5-HT2B (Homo sapiens, UniProt P41595); experiment: radioligand displacement, serotonin 5-HT2B; type: binding; conditions: human being, ligand 10 μM, duplicates
T19 construct: MDS Pharma Services (contract laboratory)
Experimental: as §1

male mice of BALB/c line = experiment: Mice Behavior in the Elevated Plus Maze; type: in vivo; conditions: 5 minutes, FIG. 8-10
Experimental: The length of maze arms makes 30 cm, the width 5 cm, height of walls 15 cm. Two opposite arms are closed from sides and end walls with prasparent walls, the two others are lighted and opened. A mouse was placed in the maze center and during 5 minutes the number of opened and closed arm entries and the time spent by the animals in opened and closed arms were registered. On this evidence indexes of opened arms preference were calculated as a ratio of the number of opened arm entries and also duration of their stay in the opened arms to the total number of entries into all of arms and duration of stay in them. Being in normal state animals avoid opened arms (index of preference makes 0.2-0.3). Compounds with anxiolytic activity (tranquilizing activity) run this value up to 0.5-0.6 and more, and also decrease the number of defecations without changing overall physical activity (general number of arm entries).

% of radioactive-labeled ligand replacement (dopamine D2L): 51%
% of radioactive-labeled ligand replacement (sodium channel, site 2): 93%
% of radioactive-labeled ligand replacement [1]: 99%
% of radioactive-labeled ligand replacement (sigma σ1): 75%
% of radioactive-labeled ligand replacement (histamine H2): 97%
% of radioactive-labeled ligand replacement (histamine H1): 97%
% of radioactive-labeled ligand replacement [2]: 65%
% of radioactive-labeled ligand replacement (dopamine D1): 62%
% of radioactive-labeled ligand replacement (serotonin 5-HT7): 76%
% of radioactive-labeled ligand replacement (serotonin 5-HT6): 79%
% of radioactive-labeled ligand replacement (sigma σ2): 52%
% of radioactive-labeled ligand replacement (adrenergic β2): 76%
% of radioactive-labeled ligand replacement (adrenergic α1B): 70%
% of radioactive-labeled ligand replacement (adrenergic α2A): 100%
% of radioactive-labeled ligand replacement (dopamine D2S): 60%
% of radioactive-labeled ligand replacement (serotonin 5-HT1B): 64* %
% of radioactive-labeled ligand replacement [3]: 67%
% of radioactive-labeled ligand replacement (adrenergic α1A): 70%
% of radioactive-labeled ligand replacement (serotonin 5-HT2C): 79%
% of radioactive-labeled ligand replacement (dopamine D3): 80%
% of radioactive-labeled ligand replacement (serotonin 5-HT2B): 52%
SMILES: CN1CCc2c(c3ccccc3n2Cc2ccccc2)C1 [formula 1, 3-methyl-9-benzyl-1,2,3,4-tetrahydrocarboline naphthalene-1,5-disulfonate]
anxiolytic (tranquilizing) action (male mice of BALB/c line): anxiolytic (tranquilizing) activity comparable with the activity of Buspirone and Lorazepam
